In patent US20050148069A1, “IGF-1 instructs multipotent adult CNS neural stem cells to an oligodendroglial lineage” (priority 2003, published 2005):

Test system: adult hippocampus-derived neural progenitor cells
Test: in vitro differentiation analysis of neural progenitor cells (immunocytochemistry for lineage markers)
Format: cell-based, rat
Settings: for differentiation of neural progenitor cells into oligodendrocytes: 500 ng/ml; for differentiation of neural progenitor cells into oligodendrocytes / GFAP+ astrocytes: 4 days; for rank order of potency for oligodendrocyte differentiation: different concentrations (20-1000 ng/ml); for GFAP+ astrocytes: each at 500 ng/ml
Method: The neural progenitor cells isolated from the hippocampus of female Fischer 344 used in this study have been characterized previously (Gage et al., 1995; Palmer et al., 1997). The whole brain-derived neural stem cells from PIO ICR mice were isolated and cultured according to the methods as described, with slight modifications. Cells were cultured as previously described (Gage et al., 1995; Ray et al., 1993). Cells between passages 10 and 20 were used for in vitro differentiation analyses. To induce differentiation, cells were plated into 4-well chamber slides at a density of 55,000-75,000 cells per well and were allowed to proliferate in N2-supplemented (Invitrogen) DMEM:F12 (Omega Scientific) medium containing 20 ng/ml FGF-2 (PeproTech, Inc.) for 24 hours. FGF-2 was then withdrawn and cells were subsequently treated with differentiation media. […] For IGF-induction experiments, cells were trypsinized, washed with 1× PBS, and plated into insulin-free N2 medium. […] In some cultures, BrdU (2.5 μM, Sigma) was added to label dividing cells, and Q-VD-OPh (2 μM, Enzyme Systems Products) was added to prevent apoptosis.
Cells were fixed with 4% paraformaldehyde, followed by immunocytochemical staining as described (Palmer et al., 1999). Labeled cells were visualized using a Nikon E800 upright microscope or a Nikon E600 inverted microscope (Nikon Inc.) and a Spot RT CCD camera (Diagnostic Instruments Inc.). 4′,6-diamidino-2-phenylindole (DAPI) was used to identify individual cells. Quantification of cell phenotypes was with StereoInvestigator (MicroBrightfield Inc.); for each marker, 500-1000 cells were sampled systematically from standardized fields at 40×magnification. For quantification of live/dead cells, images were taken of cultures live-stained with propidum iodide (1 μg/ml; Molecular Probes) and Hoescht 33342 (1 μg/ml; Sigma) at 10×magnification, and cells were counted using Image-Pro (Media Cybernetics). The following primary antibodies were used: rabbit anti-Tuj1 (1:7500;Covance), mouse anti-RIP (1:25-1:75; Hybridoma Bank); guinea pig anti-GFAP (1:500-1:2500; Advanced Immunochemical, Inc.); rabbit anti-MBP (1:500; Chemicon International Inc.), rat anti-BrdU (1:400; Accurate). Secondary antibodies were all from Jackson ImmunoResearch and used at 1:250 dilution. The detection of BrdU in cultured cells required treatment in 2 N HCL at 37° C. for 30 min (Palmer et al., 1999). All experiments were independently replicated at least 3 times.

Compound	differentiation of neural progenitor cells into oligodendrocytes	rank order of potency for oligodendrocyte differentiation	GFAP+ astrocytes	effects on proliferation or differentiation (2 μM Q-VD-OPh, 2-day cultures)	cell survival (DAPI-stained nuclei, persistence of cells) (2 μM Q-VD-OPh, 2-day cultures, insulin-free N2 medium)	RIP+ differentiation (2 μM Q-VD-OPh, no IGF-I, 2-day cultures, insulin-free N2 medium)
IGF-II: human recombinant IGF-II (R&D Systems)	could also promote the preferential differentiation of neural progenitor cells into oligodendrocytes	IGF-I>IGF-II>insulin	few to no GFAP+ astrocytes			
CC(C)[C@H](NC(=O)c1ccc2ccccc2n1)C(=O)N[C@@H](CC(=O)O)C(=O)COc1c(F)cccc1F [Q-VD-OPh, reference compound]				without obvious effects on proliferation or differentiation	promoted the majority of the cells to survive	approximately 2%
insulin: insulin (Sigma)	could also promote the preferential differentiation of neural progenitor cells into oligodendrocytes	IGF-I>IGF-II>insulin	few to no GFAP+ astrocytes			
